Laboratory results: publication PMC3781056, “New Pyrazolopyrimidine Inhibitors of Protein Kinase D as Potent Anticancer Agents for Prostate Cancer Cells” (PLoS ONE, 2013)
Entries after “also recorded” stand apart in the source; their conditions may differ. Where two headings read alike, the source gives them in different places.

Key:
Format in all cases: biochemical
Recombinant human PKD3 = biological target: T1, Recombinant human PKD3 (Homo sapiens, UniProt O94806); assay: Radiometric PKD kinase assay, 10-point IC50
T1 sequence (O94806 1-890): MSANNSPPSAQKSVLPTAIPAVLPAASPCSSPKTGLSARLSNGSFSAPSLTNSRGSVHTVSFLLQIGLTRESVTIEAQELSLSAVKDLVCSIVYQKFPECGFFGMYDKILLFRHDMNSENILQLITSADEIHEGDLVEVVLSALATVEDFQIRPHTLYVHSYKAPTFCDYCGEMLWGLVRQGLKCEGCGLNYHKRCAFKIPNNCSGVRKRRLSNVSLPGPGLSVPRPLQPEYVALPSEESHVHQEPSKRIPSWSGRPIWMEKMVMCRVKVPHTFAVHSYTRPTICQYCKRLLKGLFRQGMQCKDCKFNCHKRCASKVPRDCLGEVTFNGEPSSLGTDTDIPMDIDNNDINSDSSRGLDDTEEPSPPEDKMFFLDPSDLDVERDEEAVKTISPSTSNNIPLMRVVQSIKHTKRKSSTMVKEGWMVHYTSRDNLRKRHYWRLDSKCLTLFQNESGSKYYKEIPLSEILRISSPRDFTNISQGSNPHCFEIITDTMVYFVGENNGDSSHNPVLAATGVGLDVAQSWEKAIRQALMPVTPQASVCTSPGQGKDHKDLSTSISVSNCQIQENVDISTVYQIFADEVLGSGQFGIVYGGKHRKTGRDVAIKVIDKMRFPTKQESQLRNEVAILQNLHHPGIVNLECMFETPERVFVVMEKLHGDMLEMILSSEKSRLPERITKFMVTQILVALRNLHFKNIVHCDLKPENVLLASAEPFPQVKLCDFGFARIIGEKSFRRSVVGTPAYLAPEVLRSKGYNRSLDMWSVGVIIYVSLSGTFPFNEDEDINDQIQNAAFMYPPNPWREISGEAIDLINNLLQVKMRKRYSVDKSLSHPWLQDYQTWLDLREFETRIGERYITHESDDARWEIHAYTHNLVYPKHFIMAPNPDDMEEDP
Experimental: Recombinant human PKD1, 2, or 3 proteins were incubated in a mixture containing a peptide substrate derived from a PKD substrate, HDAC-5, and 10 different concentrations of the two compounds.
The IC50 values were calculated as the mean ±SEM of at least three independent experiments with triplicate determinations at each concentration of drug in each experiment. The data were plotted as a function of drug concentration and a representative graph is shown.

CAMKIIα = biological target: T2, CAMKIIα (Homo sapiens, UniProt Q9UQM7); assay: In vitro radiometric CAMK kinase assay; details: up to 10 µM
T2 construct: purchased SignalChem (Richmond, BC, Canada)
Experimental: (§1) The PKC kinase assay was carried out by co-incubating 1 µCi [γ-^32P]ATP, 20 µM ATP, 50 ng of purified PKCα or PKCδ and 5 µg of myelin basic protein 4–14, 0.25 mg/mL bovine serum albumin, 0.1 mg/mL phosphatidylcholine/phosphatidylserine (80/20%) (1 µM), 1 µM phorbol dibutyrate in 50 µL of kinase buffer containing 50 mM Tris-HCl, pH 7.5, 4 mM MgCl2 and 10 mM β-mercaptoethanol. For the CAMK assay, 50 ng of CAMKIIα and 2 µg syntide-2 substrate in 50 µL kinase buffer were incubated with 0.1 mM MgCl2, 1 µCi of [γ-^32P] ATP, 70 µM ATP. 0.5 mM CaCl2 and 30 ng/µL calmodulin were preincubated for 15 min on ice and then added in the kinase reaction. The reactions were incubated at 30°C for 10 min and 25 µL of the reaction was spotted on Whatman P81 filter paper. The filter paper was washed 3 times in 0.5% phosphoric acid, air dried and counted using Beckman LS6500 multipurpose scintillation counter.

PKD1 [1] = biological target: T3, PKD1 (Homo sapiens, UniProt Q15139); assay: In vitro radiometric PKD1 screening assay at 1 µM
T3 construct: GST; purchased Enzo Life sciences (Farmingdale, NY)
T3 sequence (Q15139 1-912): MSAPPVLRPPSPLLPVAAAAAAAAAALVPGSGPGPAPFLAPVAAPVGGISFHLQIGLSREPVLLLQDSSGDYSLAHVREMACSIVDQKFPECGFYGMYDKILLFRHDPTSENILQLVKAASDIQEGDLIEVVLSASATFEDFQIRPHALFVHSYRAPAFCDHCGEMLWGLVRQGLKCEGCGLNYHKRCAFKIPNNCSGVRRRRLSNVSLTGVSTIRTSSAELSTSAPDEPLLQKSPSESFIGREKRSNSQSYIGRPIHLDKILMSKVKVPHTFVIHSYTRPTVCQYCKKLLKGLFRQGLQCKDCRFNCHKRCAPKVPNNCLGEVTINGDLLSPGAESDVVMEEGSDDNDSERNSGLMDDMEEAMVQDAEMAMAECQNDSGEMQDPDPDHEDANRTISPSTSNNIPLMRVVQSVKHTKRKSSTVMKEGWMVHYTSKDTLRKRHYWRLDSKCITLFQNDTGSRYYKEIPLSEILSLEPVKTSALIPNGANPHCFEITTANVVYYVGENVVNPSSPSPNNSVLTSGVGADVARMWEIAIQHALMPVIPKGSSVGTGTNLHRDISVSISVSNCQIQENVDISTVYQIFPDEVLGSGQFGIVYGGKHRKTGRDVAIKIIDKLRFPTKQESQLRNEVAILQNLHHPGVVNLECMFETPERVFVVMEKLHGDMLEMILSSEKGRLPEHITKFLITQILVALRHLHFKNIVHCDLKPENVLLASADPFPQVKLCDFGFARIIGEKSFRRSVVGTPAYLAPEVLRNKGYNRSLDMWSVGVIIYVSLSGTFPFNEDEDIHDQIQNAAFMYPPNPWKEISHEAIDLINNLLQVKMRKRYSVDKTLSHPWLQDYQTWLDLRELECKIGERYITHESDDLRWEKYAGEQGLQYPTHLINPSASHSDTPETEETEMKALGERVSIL
Experimental: Phosphorylation of HDAC5 was detected in a kinase reaction having 1 µCi [γ-^32P] […] The reaction was incubated at 30°C for 10 minutes and 25 µL of the reaction was spotted on Whatman P81 filter paper. The filter paper was washed 3 times in 0.5% phosphoric acid, air dried and counted using Beckman LS6500 multipurpose scintillation counter. Percent PKD1 inhibition was graphed using GraphPad Prism software 5.0.

PKCδ = biological target: T4, PKCδ (Homo sapiens, UniProt Q05655); assay: In vitro radiometric PKC kinase assay
T4 construct: purchased SignalChem (Richmond, BC, Canada)
Experimental: as §1

PKCα = biological target: T5, PKCα (Homo sapiens, UniProt P17252); assay: In vitro radiometric PKC kinase assay
T5 construct: purchased SignalChem (Richmond, BC, Canada)
Experimental: as §1

PKD1 [2] = biological target: T3, PKD1; assay: ATP competition, Lineweaver-Burk analysis of PKD1 kinase activity; details: Lineweaver-Burk plots, increasing ATP
Excerpt: Lineweaver-Burk plots were generated by plotting the reciprocal of reaction velocities (1/v) against the reciprocal of ATP concentrations (1/[ATP]) at different compound concentrations. The points were fitted by linear regression.
Data presented were representative of three independent experiments.

T4 sequence (Q05655 whole entry): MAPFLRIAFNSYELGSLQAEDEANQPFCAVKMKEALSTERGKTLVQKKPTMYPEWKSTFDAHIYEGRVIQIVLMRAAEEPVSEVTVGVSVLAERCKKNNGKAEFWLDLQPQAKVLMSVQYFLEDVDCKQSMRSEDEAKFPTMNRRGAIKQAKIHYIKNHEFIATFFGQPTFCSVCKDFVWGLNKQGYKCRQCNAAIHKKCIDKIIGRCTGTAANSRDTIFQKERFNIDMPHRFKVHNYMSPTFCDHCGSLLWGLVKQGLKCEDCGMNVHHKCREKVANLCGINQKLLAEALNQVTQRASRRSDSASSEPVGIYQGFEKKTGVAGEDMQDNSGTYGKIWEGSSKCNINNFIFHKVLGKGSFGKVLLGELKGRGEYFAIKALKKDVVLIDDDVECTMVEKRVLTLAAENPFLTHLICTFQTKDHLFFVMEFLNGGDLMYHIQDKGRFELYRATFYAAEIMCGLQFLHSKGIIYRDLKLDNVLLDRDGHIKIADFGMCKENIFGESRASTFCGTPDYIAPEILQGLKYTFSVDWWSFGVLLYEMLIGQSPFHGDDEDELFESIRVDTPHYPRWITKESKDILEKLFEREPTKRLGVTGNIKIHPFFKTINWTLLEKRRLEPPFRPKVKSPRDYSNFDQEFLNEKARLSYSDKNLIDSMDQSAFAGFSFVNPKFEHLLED

Row | SMILES | IC50 (Recombinant human PKD3; mean ± SEM, read-out: IC50 PKD3) [nM] | IC50 (Recombinant human PKD3; value in the figure, representative graph, read-out: PKD3 IC50) [nM] | inhibition of CAMKIIα, in words (CAMKIIα) | % PKD1 Inhibition (PKD1 [1]; 1 µM, targeted kinase inhibitor library screen, relative to DMSO) [%] | inhibition of PKCδ (PKCδ; 10 µM) [%] | inhibition of PKCα (PKCα; 10 µM) [%] | mode of PKD1 inhibition with respect to ATP (PKD1 [2]) | IC50 (Recombinant human PKD3) [nM] | IC50 (Recombinant human PKD3; PKD3 IC50, value printed in the figure, representative graph) [nM] | inhibition at 1 µM (PKD1 [1]; read-out: % PKD1 Inhibition) [%] | inhibition at 1 µM (PKD1 [1]; read-out: inhibition of PKD1 activity) [%] | inhibition of PKCδ, in words (PKCδ; 0.1, 1 and 10 µM) | inhibition of PKCα, in words (PKCα; 0.1, 1 and 10 µM)
1 | O=C(c1ccc(Nc2nccc(-c3cc4ccccc4s3)n2)cc1)N1CCC(N2CCCC2)CC1 [IKK-16, reference compound] | 99.7 | 97 | almost completely abrogated its activity | 67 | > 50 | > 50 | ATP-competitive inhibitors |  |  |  |  |  | 
2 | CC(C)(C)n1nc(-c2cccc3ccccc23)c2c(N)ncnc21 [Compound 1-NA-PP1, 1-(t-Butyl)-3-(naphthalen-1-yl)-1H-pyrazolo[3,4-d]pyrimidin-4-amine] |  |  | little activity; also recorded: did not significantly inhibit |  |  |  | ATP-competitive inhibitors | 109 | 104 | 77 | 80 | No significant inhibitory activities; also recorded: did not significantly inhibit | No significant inhibitory activities; also recorded: did not significantly inhibit
